Measured values as given in patent US11591359B2, “Enzyme-specific intracellularly-retained red fluorescent probe” (priority 2016, dated 2023).
“Also recorded” adds a separate entry of the source.

Experiments:
β-galactosidase [1] = target: T1, β-galactosidase (Escherichia coli, UniProt P00722); test: Changes in absorption and fluorescence spectra by enzyme reaction; assay type: biochemical; conditions: 1 μM probe in PBS buffer, 5U β-galactosidase; for fluorescence emission in response to enzyme activity of β-galactosidase: excitation 610 nm, fluorescence 638 nm, 3600 seconds
Procedure: For the probe compounds of the present invention obtained in Example 1 (4-CH2F-SPiDER-RED-βGal and 2-CH2F-SPiDER-RED-βGal), changes in absorption and fluorescence spectra according to the addition of β-galactosidase were measured. The measurement results of 4-CH2F-SPiDER-RED-βGal are shown in FIG. 1, and the measurement results of 2-CH2F-SPiDER-RED-βGal are shown in FIG. 2.
The measurement conditions are as follows: an excitation wavelength of 610 nm, a slit (excitation/fluorescence) of 2.5 nm/2.5 nm, and a photomultiplier voltage of 700 V.
Measurements were carried out by adding 5U β-galactosidase to 2-CH2F-SPiDER-RED-βGal prepared at 1 μM in a PBS buffer solution. […] The measurement conditions are as follows: an excitation wavelength of 610 nm, a slit (excitation/fluorescence) of 2.5 nm/2.5 nm, and a photomultiplier voltage of […].

β-galactosidase [2] = target: T1, β-galactosidase; test: Labeling of fluorescent dye to BSA protein by β-galactosidase enzyme reaction in presence of BSA (SDS-PAGE fluorescence); assay type: biochemical; conditions: 1 mg/mL BSA, 5U β-galactosidase in PBS; for fluorescent labeling of BSA (fluorescence at the position of BSA after SDS electrophoresis): 10 μM compound, excitation 488 nm, fluorescence 540 to 600 nm
Procedure: The measurement results of 4-CH2F-SPiDER-RED-βGal are shown in FIG. 3, and the measurement results of 2-CH2F-SPiDER-RED-βGal are shown in FIG. 4.
Using 1) 10 μL of a PBS buffer solution containing 10 μM […], 1 mg/mL BSA, and 5U β-galactosidase, 2) 10 μL of a PBS buffer solution containing 10 μM 4-CH2F-SPiDER-RED-βGal and 1 mg/mL BSA, 3) 10 μL of a PBS buffer solution containing 10 μM 4-CH2F-SPiDER-RED-βGal and 5U β-galactosidase, 4) 10 μL of a PBS buffer solution containing only 10 μM 4-CH2F-SPiDER-RED-βGal, and 5) 10 μL of a PBS buffer solution containing 10 μM 4-CH2OH-SPiDER-RED, the reaction products were subjected to SDS-PAGE (running gel: 10%, stacking gel: 4%, electrophoresis voltage: 200 V). […] After observation, each gel was Coomassie stained and the position of the BSA on the gel was confirmed (FIG. 3(b)).
FIGS. 4(a) and 4(b) show the results of similar measurement using 10 μM 2-CH2F-SPiDER-RED-βGal instead of 10 μM 4-CH2F-SPiDER-RED-βGal.

[3] = tested on: Wing discs of a drosophila (en-lacZ/dpp-GFP) expressing β-galactosidase and GFP; test: Non-fixed fluorescence imaging of living biological tissue having β-galactosidase activity; assay type: cell-based, Drosophila melanogaster; conditions: room temperature for 2 hours, excitation 594 nm, fluorescence 601 to 681 nm
Procedure: Next, we have examined whether the probe compound of the present invention, 4-CHF2-SPiDER-RED-βGal, can be applied to fluorescence imaging of living biological tissues by using drosophila tissues.
Wing discs of a drosophila (Drosophila melanogaster, en-lacZ/dpp-GFP) expressing β-galactosidase and GFP in some tissues were incubated with 4-CHF2-SPiDER-RED-βGal and Hoechst 33342 at room temperature for 2 hours, and then observed under a confocal microscope (TCS SP8, manufactured by Leica). White light laser (WLL) was used as laser, and HCX PL APO CS 40×/1.25 (40 times, manufactured by Leica) was used as an objective lens. The measurement conditions are as follows: excitation wavelengths: 405 nm (Hoechst 33342), 488 nm (GFP), 594 nm (4-CHF2-SPiDER-RED-βGal), fluorescence wavelengths: 420 to 490 nm (Hoechst 33342), 490 to 570 nm (GFP), 601 to 681 nm (4-CHF2-SPiDER-RED-βGal), and a scale: 75 μm.

[4] = tested on: cells not expressing β-galactosidase (HEK); test: Fluorescence imaging of living cells, co-cultured cells not expressing β-galactosidase; assay type: cell-based; conditions: 37° C. for 30 minutes, no washing; excitation 594 nm, fluorescence 610 to 700 nm
Procedure: (§1) 4-CHF2-SPiDER-RED-βGal was added to a dish in which cells expressing β-galactosidase (HEK-lacZ) and cells not expressing β-galactosidase (HEK) were co-cultured, and incubated at 37° C. for 30 minutes. The HEK cells were previously stained with CellTracker (TM) Green. A fluorescence image and a transmitted light image were acquired using a confocal microscope (TCS SP5X; manufactured by Leica). White light laser (WLL) was used as laser, and HCX PL APO CS 40×/1.25 (40 times, manufactured by Leica) was used as an objective lens. The observation conditions were as follows: an excitation wavelength: 594 nm, a fluorescence wavelength: 610 to 700 nm, and a scale: 25 μm.

[5] = tested on: cells expressing β-galactosidase (HEK-lacZ); test: Fluorescence imaging of living cells expressing β-galactosidase (co-culture, confocal microscope); assay type: cell-based; conditions: 37° C. for 30 minutes, no washing; excitation 594 nm, fluorescence 610 to 700 nm
Procedure: as §1

T1 sequence (P00722 2-1024): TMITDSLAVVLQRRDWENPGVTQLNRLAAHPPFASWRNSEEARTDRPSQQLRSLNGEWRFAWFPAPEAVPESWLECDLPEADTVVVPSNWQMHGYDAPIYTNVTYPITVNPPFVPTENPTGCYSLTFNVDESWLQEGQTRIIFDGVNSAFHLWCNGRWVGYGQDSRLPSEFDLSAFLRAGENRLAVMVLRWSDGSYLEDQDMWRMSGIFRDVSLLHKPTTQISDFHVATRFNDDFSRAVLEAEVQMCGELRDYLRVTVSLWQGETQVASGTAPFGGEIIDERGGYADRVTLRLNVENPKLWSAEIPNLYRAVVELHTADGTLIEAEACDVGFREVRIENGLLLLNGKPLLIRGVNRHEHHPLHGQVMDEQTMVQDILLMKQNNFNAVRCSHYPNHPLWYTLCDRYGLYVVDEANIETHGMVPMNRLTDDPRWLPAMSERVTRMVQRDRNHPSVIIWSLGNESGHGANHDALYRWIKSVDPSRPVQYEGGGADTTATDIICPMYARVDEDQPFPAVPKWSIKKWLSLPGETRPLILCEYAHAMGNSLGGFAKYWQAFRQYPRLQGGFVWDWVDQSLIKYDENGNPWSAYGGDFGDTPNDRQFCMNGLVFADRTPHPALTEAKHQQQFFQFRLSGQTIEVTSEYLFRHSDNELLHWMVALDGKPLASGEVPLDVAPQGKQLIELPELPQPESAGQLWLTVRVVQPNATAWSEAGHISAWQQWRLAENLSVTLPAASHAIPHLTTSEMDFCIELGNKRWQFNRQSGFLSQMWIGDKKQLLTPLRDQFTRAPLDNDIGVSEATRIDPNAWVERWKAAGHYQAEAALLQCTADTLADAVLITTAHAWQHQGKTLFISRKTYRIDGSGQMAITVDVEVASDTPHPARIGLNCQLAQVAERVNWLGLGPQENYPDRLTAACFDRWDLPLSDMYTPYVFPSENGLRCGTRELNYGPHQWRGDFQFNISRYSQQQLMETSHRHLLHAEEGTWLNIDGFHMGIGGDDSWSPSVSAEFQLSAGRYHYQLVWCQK

Structure (SMILES) | fluorescence emission in response to enzyme activity of β-galactosidase (β-galactosidase [1]) | fluorescent labeling of BSA (fluorescence at the position of BSA after SDS electrophoresis) (β-galactosidase [2]) | fluorescent labeling of BSA (fluorescence at the position of BSA after SDS electrophoresis) (β-galactosidase [2]; listed as 2-CHF2-SPiDER-RED-βGal) | fluorescence intensity of labeled BSA (comparison of the two probes) (β-galactosidase [2]; 10 μM probe) | reactivity with the enzyme (β-galactosidase [2]; 10 μM probe) | selective fluorescence imaging of the region / cells having β-galactosidase activity in living tissue ([3]; with Hoechst 33342, listed as 4-CHF2-SPiDER-RED-βGal) | diffusion of fluorescence of the enzyme reaction product in tissue [3] | fluorescence increasing rate (comparison of the two probes) (β-galactosidase [1]) | reactivity with β-galactosidase (comparison of the two probes) (β-galactosidase [1]) | red fluorescence signal in HEK cells not expressing β-galactosidase [4] | red fluorescence in HEK-lacZ cells [5]
CN(C)c1ccc2c(c1)[Si](C)(C)c1cc(O[C@@H]3O[C@H](CO)[C@H](O)[C@H](O)[C@H]3O)c(CF)cc1C21OC(=O)c2ccccc21 (some centres unmarked) [2-CH2F-SPiDER-RED-βGal] | emit fluorescence specifically in response to enzyme activity of β-galactosidase | fluorescently label bovine serum albumin (BSA) protein | BSA was fluorescently labeled | lower than that of 4-CHF2-SPiDER-RED-βGal | low |  |  |  |  |  | 
CN(C)c1ccc2c(c1)[Si](C)(C)c1c(ccc(O[C@@H]3O[C@H](CO)[C@H](O)[C@H](O)[C@H]3O)c1CF)C21OC(=O)c2ccccc21 (some centres unmarked) [4-CH2F-SPiDER-RED-βGal] | emit fluorescence specifically in response to enzyme activity of β-galactosidase | fluorescently label bovine serum albumin (BSA) protein |  |  |  | selective fluorescence imaging of the region having β-galactosidase activity was possible; also recorded: can be detected at a single-cell level | no diffusion of fluorescence | higher fluorescence increasing rate than 2-CHF2-SPiDER-RED-βGal | higher reactivity with β-galactosidase | no red fluorescence signal was obtained | red fluorescence derived from the test compound was observed only in HEK-lacZ cells
CN(C)c1ccc2c(c1)[Si](C)(C)c1c(ccc(O)c1CO)C21OC(=O)c2ccccc21 (centres unmarked) [4-CH2OH-SPiDER-RED, reference compound] |  | fluorescence was not observed |  |  |  |  |  |  |  |  | 
